Activity calls are given as the source filed them.
How the values were obtained:
[1] = viability loss in THP-1 monocytes – THP-1 cells, cytotoxicity control for Vif-APOBEC3G degradation inhibitor project, dose response (AID 1117359); type: functional; conditions: THP-1
[2] = blockers of HIV-1 ZM109 envelope-driven cell-cell fusion – HeLa effector, CEM target cells, luciferase, cherry-pick, dose response (AID 652058); type: functional, cell-based;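 also: luciferase signal from HIV-1 Env mediated cell-cell fusion of effector and target cells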
[3] = HIV-1 AD8 envelope cell-cell fusion blockers – cherry-pick, dose response (AID 652062); type: functional, cell-based;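 also: luciferase signal from cell-cell fusion driven by HIV-1 clade B AD8 Env; potency is for inhibitors of fusion seen as a drop in luminescence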
[4] = growth inhibition of yeast DHODH-expressing 3D7 parasites – SYBR Green, dry powder samples, dose response (AID 1159570); type: functional, cell-based;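 also: parasite growth measured after 72 hours of compound exposure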
[5] = toxicity to human HepG2 hepatoma cells – cell-based, plate reader, dry powder samples, cytotoxicity control, dose response (AID 1159569); type: functional;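 also: inhibitor potency with signal falling toward the positive control level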
[6] = P. falciparum Dd2 growth inhibitors, dose response, SYBR Green, cherry-picked samples (AID 1159567); type: functional, cell-based
[7] = Dd2 malaria parasite growth inhibition potency – SYBR Green, dry powder samples, dose response (AID 1159566); type: functional, cell-based;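 also: potency for growth inhibition with lower SYBR green DNA signal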
[8] = growth inhibition of PfATP4-mutant resistant parasites – NITD609-resistant line, SYBR Green, dry powder, dose response (AID 1159571); type: functional, cell-based;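 also: parasites synchronized at ring stage by sorbitol before testing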
Beta-galactosidase = Beta-galactosidase (Escherichia coli, UniProt Q8VNN2); experiment: Dose response counterscreen for EBI2 assay utilizing the enzyme, b-galactosidase.; type: functional
[9] = target: T1, Sentrin-specific protease 8 (Homo sapiens, UniProt Q96LD8); type: functional
T1 sequence (Q96LD8 whole entry): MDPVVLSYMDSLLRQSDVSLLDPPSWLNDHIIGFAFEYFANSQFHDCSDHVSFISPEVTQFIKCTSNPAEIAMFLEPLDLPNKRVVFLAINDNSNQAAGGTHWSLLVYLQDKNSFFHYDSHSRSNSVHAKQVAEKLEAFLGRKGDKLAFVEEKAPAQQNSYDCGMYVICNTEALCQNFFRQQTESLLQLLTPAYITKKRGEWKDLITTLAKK

[10] = target: T1, Sentrin-specific protease 8; type: functional; remark: listed apart in the source
[11] = NIH-3T3 fibroblast cytotoxicity, dose response, cytotoxicity control, cell-based, fluorescence, Alamar Blue, secondary assay (AID 2327); type: functional;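 also: NIH-3T3 mouse fibroblasts cultured with fluconazole at 8 µg/mL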
[12] = fluconazole-exposed Candida albicans growth modulators – fluorescence, retest, confirmation (AID 2467); type: functional, cell-based
[13] = viability of PTEN-deleted HCT116 cells – cell-based, HCT116 PTEN knockout, dose response (AID 1047); type: functional;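 also: HCT116 colon tumor cells with PTEN knocked out; cells exposed to compound for 60 hours before readout; potency for loss of cell viability measured by luminescence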
[14] = viability of HCT116 lacking mutant beta-catenin – cell-based, human colon tumor, dose response (AID 1045); type: functional;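 also: HCT116 colon tumor cells with beta catenin knocked out; cells exposed to compound for 60 hours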
[15] = target: T2, Ubiquitin-conjugating enzyme E2 N (Homo sapiens, UniProt P61088); type: functional;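 also: Dose-response confirmation in a TR-FRET assay detecting UBC13-driven polyubiquitin chain formation, inhibition measured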
T2 sequence (P61088 whole entry): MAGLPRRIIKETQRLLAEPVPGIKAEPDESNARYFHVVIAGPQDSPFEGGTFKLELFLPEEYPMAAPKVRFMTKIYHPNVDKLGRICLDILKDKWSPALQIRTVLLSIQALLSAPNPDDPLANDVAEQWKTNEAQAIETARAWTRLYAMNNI

[16] = target: Eukaryotic translation initiation factor 4E (Mus musculus, UniProt P63073); experiment: blockers of eIF4G binding by eIF4E – biochemical, TR-FRET, dose response (AID 855); type: functional;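 also: potency for disrupting eIF4E binding to eIF4GI seen as loss of FRET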
[17] = HEK-293T viability loss after treatment – luminescence, T-cell screen hits, cytotoxicity control for TCR NF-kB inhibitor project, dose response (AID 489026); type: functional, cell-based;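 also: cells exposed to compound about 14 hours before the viability readout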
[18] = target: Heat shock protein HSP 90-alpha (Homo sapiens, UniProt P07900); type: functional, organism-based
[19] = target: T3, Apoptotic protease-activating factor 1 (Homo sapiens, UniProt O14727); type: functional
T3 sequence (O14727 whole entry): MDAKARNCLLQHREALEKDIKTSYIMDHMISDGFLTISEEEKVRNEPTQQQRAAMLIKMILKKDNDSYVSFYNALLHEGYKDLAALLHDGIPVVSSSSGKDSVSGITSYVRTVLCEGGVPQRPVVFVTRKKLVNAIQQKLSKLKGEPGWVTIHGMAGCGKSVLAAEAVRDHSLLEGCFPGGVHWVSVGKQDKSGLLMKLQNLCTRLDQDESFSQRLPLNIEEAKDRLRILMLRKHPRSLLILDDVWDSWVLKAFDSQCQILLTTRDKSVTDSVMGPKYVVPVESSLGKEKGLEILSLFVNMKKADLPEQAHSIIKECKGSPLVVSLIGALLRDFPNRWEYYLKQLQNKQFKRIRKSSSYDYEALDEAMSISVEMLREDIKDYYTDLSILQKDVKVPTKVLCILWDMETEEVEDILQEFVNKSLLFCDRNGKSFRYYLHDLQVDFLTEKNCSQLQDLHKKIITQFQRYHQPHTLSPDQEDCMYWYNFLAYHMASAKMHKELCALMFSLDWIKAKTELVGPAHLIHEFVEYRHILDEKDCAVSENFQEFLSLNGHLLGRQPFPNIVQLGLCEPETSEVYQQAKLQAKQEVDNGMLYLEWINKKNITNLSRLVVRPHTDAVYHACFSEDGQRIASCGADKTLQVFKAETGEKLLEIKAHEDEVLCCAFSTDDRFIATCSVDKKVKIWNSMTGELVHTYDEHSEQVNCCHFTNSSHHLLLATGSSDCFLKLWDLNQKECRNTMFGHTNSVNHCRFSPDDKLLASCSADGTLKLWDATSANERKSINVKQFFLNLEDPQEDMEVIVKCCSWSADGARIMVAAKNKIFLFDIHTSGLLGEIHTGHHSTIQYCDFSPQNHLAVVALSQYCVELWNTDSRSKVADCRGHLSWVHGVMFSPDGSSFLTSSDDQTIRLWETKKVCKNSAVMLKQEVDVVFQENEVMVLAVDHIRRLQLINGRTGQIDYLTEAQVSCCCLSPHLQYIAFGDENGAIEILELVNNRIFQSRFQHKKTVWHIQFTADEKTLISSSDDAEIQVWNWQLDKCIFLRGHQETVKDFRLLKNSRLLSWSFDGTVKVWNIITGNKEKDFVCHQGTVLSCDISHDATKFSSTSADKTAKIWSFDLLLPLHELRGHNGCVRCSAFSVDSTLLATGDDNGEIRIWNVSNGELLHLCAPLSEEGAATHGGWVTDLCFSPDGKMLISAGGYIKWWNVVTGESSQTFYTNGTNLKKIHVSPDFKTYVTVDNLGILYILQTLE

INS1 = experiment: INS-1E survival protection against cytokine death – cell-based, luminescence, retest, dose response (AID 449756); type: functional; conditions: Rattus norvegicus;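 also: cell death triggered by IL-1 beta plus TNF-alpha plus IFN-gamma mixture; protective hits raise ATP signal compared with cytokine alone wells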
Vero = experiment: cells; type: functional; conditions: Chlorocebus sabaeus

Chain of Eukaryotic translation initiation factor 4E (P63073 whole entry): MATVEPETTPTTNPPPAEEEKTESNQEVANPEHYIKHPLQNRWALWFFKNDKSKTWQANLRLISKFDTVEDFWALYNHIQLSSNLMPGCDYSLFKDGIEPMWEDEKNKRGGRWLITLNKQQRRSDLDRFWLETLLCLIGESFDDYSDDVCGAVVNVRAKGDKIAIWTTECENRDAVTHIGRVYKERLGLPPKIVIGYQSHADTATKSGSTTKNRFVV
Chain of Beta-galactosidase (Q8VNN2 whole entry): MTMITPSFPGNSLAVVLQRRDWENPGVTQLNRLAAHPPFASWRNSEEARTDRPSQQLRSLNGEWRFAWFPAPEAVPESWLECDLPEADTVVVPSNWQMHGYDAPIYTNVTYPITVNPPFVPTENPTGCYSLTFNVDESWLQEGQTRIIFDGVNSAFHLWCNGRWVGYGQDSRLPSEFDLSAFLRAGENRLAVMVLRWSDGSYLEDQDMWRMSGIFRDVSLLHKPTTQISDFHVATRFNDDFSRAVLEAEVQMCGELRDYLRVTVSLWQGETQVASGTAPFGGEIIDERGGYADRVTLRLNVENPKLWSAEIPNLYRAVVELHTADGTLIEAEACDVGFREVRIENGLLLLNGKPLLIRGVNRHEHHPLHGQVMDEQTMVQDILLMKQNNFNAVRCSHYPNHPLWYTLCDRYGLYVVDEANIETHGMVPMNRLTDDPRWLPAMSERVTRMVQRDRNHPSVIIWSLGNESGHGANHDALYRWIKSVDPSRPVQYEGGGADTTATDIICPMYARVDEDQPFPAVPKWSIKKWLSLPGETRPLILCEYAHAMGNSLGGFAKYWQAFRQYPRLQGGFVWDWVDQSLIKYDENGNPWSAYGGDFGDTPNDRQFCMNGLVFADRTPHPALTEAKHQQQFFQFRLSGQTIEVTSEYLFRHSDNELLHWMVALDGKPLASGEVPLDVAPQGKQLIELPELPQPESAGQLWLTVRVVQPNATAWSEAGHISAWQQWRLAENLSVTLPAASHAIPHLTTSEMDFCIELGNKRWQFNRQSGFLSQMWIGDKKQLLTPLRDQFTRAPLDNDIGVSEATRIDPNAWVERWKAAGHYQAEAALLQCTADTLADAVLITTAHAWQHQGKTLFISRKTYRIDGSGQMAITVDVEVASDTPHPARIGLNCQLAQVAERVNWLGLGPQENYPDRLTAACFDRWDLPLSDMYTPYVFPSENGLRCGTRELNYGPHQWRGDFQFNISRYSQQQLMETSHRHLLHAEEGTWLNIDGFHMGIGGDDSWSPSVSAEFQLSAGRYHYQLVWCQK

N#Cc1cccc(Oc2ccc(S(=O)(=O)N3CCCC3)cn2)c1
CC50 [1]: > 40 µM (active)

C[C@@H]1CCCCO[C@H](CN(C)C)[C@H](C)CN([C@@H](C)CO)C(=O)c2cc(NS(=O)(=O)c3cn(C)cn3)ccc2O1
AC50 [2]: 1.36 µM (active)
AC50 [3]: 2.6 µM (active)

CN(C)CC(=O)N1C[C@@H]2N[C@H](C1)[C@@H]2c1ccc(/C=C/c2ccccc2)cc1
AC50 [4]: 4.57 µM (active)
AC50 [5]: 23.2 µM (active)
AC50 [6]: 2.01 µM (active)
AC50 [7]: 1.94 µM (active)
AC50 [8]: 4.64 µM (active)

CCOC(=O)c1cnc(SCC(=O)Nc2cc(C(F)(F)F)ccc2N2CCOCC2)nc1N
IC50 (Beta-galactosidase): > 80 µM (inactive)

Cc1cc2c(NC(=O)CC(C)(C)CC(=O)O)cccc2nn1
IC50 [9]: 15.1 µM (active)
IC50 [10]: 8.03 µM (active)

CCCCCCCCCCCCCCCC[n+]1cccc(C(=O)N(CC)CC)c1
EC50 [11]: 41.8 µM (active)
EC50 [12]: > 38 µM (not active)
EC50 [13]: 6.46 µM (active)
EC50 [14]: 5.92 µM (active)
IC50 [15]: > 20 µM (inactive)
IC50 [16]: 28.9 µM (active)
IC50 [17]: 24.8 µM (inactive)
AC50 [18]: 2.89 µM (active)
IC50 [19]: 21.5 µM (active)
AC50 (INS1): 4.92 µM (active)
CC50 (Vero): 18.1 µM (active)

C[C@H]1CN([C@@H](C)CO)C(=O)c2cc(C#Cc3cccc(F)c3)cnc2O[C@@H]1CN(C)C(=O)C1CCCCC1
AC50 [4]: 1.37 µM (active)
AC50 [5]: 22.1 µM (active)
AC50 [6]: 0.686 µM (active)
AC50 [7]: 0.495 µM (active)
AC50 [8]: 0.742 µM (active)

C[C@H](CO)N1C[C@H](C)[C@H](CN(C)C(=O)Cc2ccncc2)Oc2cc(C#CC3CCCC3)ccc2S1(=O)=O
AC50 [4]: 4.97 µM (active)
AC50 [5]: 97 µM (active)
AC50 [6]: 2.13 µM (active)
AC50 [7]: 2.28 µM (active)
AC50 [8]: 4.96 µM (active)
